In assay [1] the test system is YAP-TEAD interaction. Put plainly: SK-HEP-1 reporter assay (8xTEAD responsive elements driving NanoLuc luciferase). Format: cell-based. The method in brief: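 SK-HEP-1 cells stably carrying 8×TEAD-driven NanoLuc treated in duplicate, 10-point dose from 30 μM final, 0.3% DMSO, 24 h at 37° C. Luminescence after NanoGlo lysis/substrate addition; IC50 calculated from dose response.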
A general note: Reporter assays use an easily measured gene product as a stand-in for the process of interest.

Assay [2] concerns SW620 Yap KO cells. Put plainly: Viability assay in SW620 Yap KO (Yap independent) cells, CyQuant. Format: cell-based. To be noted: Homo sapiens, SW-620, 96 h. As for the experimental part: (§1) Viability Assay in NCI-H226 (Yap-Dependent) and SW620 Yap KO (Yap Independent) Cells
(§2) The ability of YAP-TEAD inhibitors to inhibit tumor cell growth was evaluated using two different cell lines: NCI-H226, which is a YAP dependent cell line, and SW620 cells, where YAP and TAZ were knocked out using CRISPR to generate a YAP independent cell line.
(§3) For the assay, cells were treated in duplicates with the test compounds in a 10-point dose, 1:3 dilution steps, with the top concentration starting at 30 μM (final concentration in assay). After a 96 hour incubation at 37° C., 95% rH, and 5% CO2, a cell-permeant DNA-binding dye that stains only healthy cells (CyQUANT®, Promega) was added to the cells, allowing the quantification of cell viability.
(§4) Cell Media: The NCI-H226 cells were cultured in the following media: RPMI 1640, +10% FBS, +1× GlutaMAX, +10 mM HEPES, +0.5% Pen/Strep. The SW620-KO cells were cultured in the following media: DMEM/F-12, +10% FBS, +1× GlutaMAX, +10 mM HEPES, +0.5% Pen/Strep.
(§5) Reagents: The reagents used are listed below:
(§6) Cell culture: The cells were examined using an inverted microscope to check for health, cell density, etc. To dissociate adherent cells, the monolayer of cells was washed once with pre-warmed PBS. After removing the PBS, 3 ml pre-warmed Accutase was added to a F75 flask, dispersed evenly and the flask was allowed to sit in incubator for ˜4-5 minutes.
(§7) When a single cell suspension was obtained, 7 ml of prewarmed growth media was added and resuspended with the cells. The cell suspension was transferred to a sterile 15 ml conical centrifuge tube, and spun for 5 min at 300×g, RT. The supernatant was discarded and the pellet was resuspended in 10 ml of pre-warmed growth media.
(§8) The total cell count was determined, and 20 μl of the desired cell number was added to each well of a 384 well plate using a Multidrop Combi. The plates were then incubated for 24 hours at 37° C., 95% rH, and 5% CO2.
(§9) Compound treatment: 24 hours after seeding, the cells were treated with compounds.
(§10) A 1:333 dilution of compounds, diluted in DMSO, was made to get a final concentration of 0.3% DMSO per well. To transfer the compounds to the assay plate, […] was shot from Labcyte low dead volume plates to the cell plates containing 20 μl media/well with the ECHO 555 liquid handling system.
(§11) After treatment, the cells were fed with 20 μl fresh pre-warmed assay media using a Multidrop combi.
(§12) The assay plates were then incubated for 96 h at 37° C., 95% rH, and 5% CO2.
(§13) 96 h after treatment 30 μl of CyQuant® reagent was added to the assay plates using a Multidrop combi in the dark. The plates were then incubated for 1 hour at 37° C., 95% rH and 5% CO2. Thereafter, the assay plates were removed from the incubator and allowed to equilibrate to RT for 30 min in the dark without lid. Finally, they were measured using an EnVision microplate reader with a FITC bottom read program.

Assay [3] has as its system NCI-H226 cells. The assay can be described thus: Viability assay in NCI-H226 (Yap-dependent) cells, CyQuant. The assay is classed as cell-based, human. The conditions noted are these: Homo sapiens, NCI-H226, 96 h, class symbols. As to the method:
as §1, §2, §3, §4, §5, §6, §7, §8, §9, §10, §11, §12, §13

Setting [4] is: Homo sapiens, SK-HEP1, SK-HEP-1 reporter assay, n.d. = value not detectable below threshold given in parentheses.
Setting [5] is: n.d. = value not detectable below threshold given in parentheses.
The mark [6] stands for this setting: Homo sapiens, SK-HEP1, SK-HEP-1 reporter assay, class symbols.
Setting [7] is: SK-HEP-1 reporter assay, class symbols.
Where [8] appears, read: n.d. = value not detectable below threshold given in parentheses, ND = not determinable within the entire range.

What is called IC50 is the concentration that inhibits the measured activity by half.

Consider `Cn1cc2c3cc(C(=O)N=[S@](=O)(CCCO)Cc4ccncc4)ccc3n(-c3ccc(C(F)(F)F)cc3)c2n1` (single isomer, unassigned) [Example C236], for which the IC50 was over 95 nM in assay [1] (setting [4]), over 3000 nM in assay [2] (setting [5]) and 1 to 100 nM in assay [3].

For `Cn1nc2c3cc(C(=O)N=[S@@](=O)(CCCO)Cc4ccccn4)ccc3n(-c3ccc(C(F)(F)F)cc3)c2n1` (single isomer, unassigned) [Example C237], the IC50 in assay [1] (setting [4]) was over 3000 nM; in assay [2] (setting [5]), over 3000 nM; in assay [3] it was 1 to 100 nM.

For `Cn1cc2c3cc(C(=O)N[C@@H](CCO)c4ccccn4)ccc3n(-c3ccc(C(F)(F)F)cc3)c2n1` (single isomer, unassigned) [Example C240], the figures for the IC50 in assay [1] (setting [6]), in assay [2] (setting [5]) and in assay [3] were 10 to 100 nM, over 3000 nM and 1 to 100 nM, respectively.

On to `Cn1nc2c3cc(C(=O)N[C@H](CCO)c4ccccn4)ccc3n(-c3ccc(C(F)(F)F)cc3)c2n1` (single isomer, unassigned) [Example C241], for which the IC50 in assay [1] (setting [6]) was 10 to 100 nM; in assay [2] (setting [5]), over 3000 nM; in assay [3] it was 100 to 1000 nM.

On to `Cn1nc2c3cc(C(=O)N[C@@H](CCO)c4ccccn4)ccc3n(-c3ccc(C(F)(F)F)cc3)c2n1` (single isomer, unassigned) [Example C242], for which the IC50 in assay [1] (setting [6]) is 10 to 100 nM; in assay [2] (setting [5]), over 3000 nM; in assay [3], 1 to 100 nM.

Take `COCCC(CO)NC(=O)c1ccc2c(c1)c1cn(C)nc1n2-c1ccc(C(F)(F)F)cc1` (single isomer, unassigned) [Example C245]: the IC50 in assay [1] (setting [7]) is 10 to 100 nM; in assay [2] (setting [5]), over 30000 nM; in assay [3], 1 to 100 nM.

In the case of `Cn1nc2c3cc(C(=O)N=[S@@](=O)(CCCO)Cc4ccncc4)ccc3n(-c3ccc(C(F)(F)F)cc3)c2n1` (single isomer, unassigned) [Example C250], the half-inhibitory concentration (IC50) in assay [1] (setting [4]) was over 300 nM; in assay [2] (setting [5]), over 3000 nM; in assay [3] it was 1 to 100 nM.

Consider `Cn1nnc2c3cc(C(=O)N=[S@](=O)(CCO)Cc4cccnc4)ccc3n(-c3ccc(C(F)(F)F)cc3)c21` (single isomer, unassigned) [Example C251], for which the IC50 in assay [1] (setting [6]) is 10 to 100 nM; in assay [2] (setting [5]), over 3000 nM; in assay [3], 100 to 1000 nM.

With `Cn1nc2c3cc(C(=O)N=[S@](=O)(CCCO)Cc4ccncc4)ccc3n(-c3ccc(C(F)(F)F)cc3)c2n1` (single isomer, unassigned) [Example C252], the IC50 in assay [1] (setting [4]) was over 300 nM; in assay [2] (class symbols), 1000 to 10000 nM; in assay [3] it was 100 to 1000 nM.

Consider `Cn1cc2c3cc(C(=O)N=[S@](=O)(CCO)Cc4ccncc4)ccc3n(-c3ccc(C(F)(F)F)cc3)c2n1` (single isomer, unassigned) [Example C253], for which the IC50 in assay [1] (setting [4]) is over 6500 nM; in assay [2] (class symbols), 1000 to 10000 nM; in assay [3], 100 to 1000 nM.

For `Cn1cc2c3cc(C(=O)N=[S@@](=O)(CCO)Cc4ccncc4)ccc3n(-c3ccc(C(F)(F)F)cc3)c2n1` (single isomer, unassigned) [Example C254], the IC50 in assay [1] (setting [4]) is over 300 nM; in assay [2] (class symbols), 1000 to 10000 nM; in assay [3], 1 to 100 nM.

Turning to `Cn1cnc2c1c1cc(C3CC(Oc4cncnc4)=NO3)ccc1n2-c1ccc(C(F)(F)F)cc1` (stereo not drawn) [Example 40, 5-[(5-{1-methyl-4-[4-(trifluoromethyl)phenyl]-1H,4H-imidazo[4,5-b]indol-7-yl}-4,5-dihydro-1,2-oxazol-3-yl)oxy]pyrimidine], the results for the IC50 in assay [1] (setting [7]), in assay [2] (class symbols) and in assay [3] were 10 to 100 nM, over 30000 nM and over 10000 nM, respectively.

Consider `Cn1cnc2c1c1cc(C(=O)N[C@](C)(CO)c3ccccn3)ccc1n2-c1ccc(C(F)(F)F)cc1` [Example C2, N-[(2S)-1-hydroxy-2-(pyridin-2-yl)propan-2-yl]-1-methyl-4-[4-(trifluoromethyl)phenyl]-1H,4H-imidazo [4,5-b]indole-7-carboxamide], for which the IC50 in assay [1] (setting [6]) is 10 to 100 nM; in assay [2] (setting [8]) it was over 30000 nM; in assay [3] it was 1 to 100 nM.

For the compound `Cn1nnc2c3cc(-c4noc(=O)[nH]4)ccc3n(-c3ccc(C(F)(F)F)cc3)c21` [Example C3, 3-{2-methyl-4-[4-(trifluoromethyl)phenyl]-3H,4H-[1,2,3]triazolo[4,5-b]indol-7-yl}-4,5-dihydro-1,2,4-oxadiazol-5-one], the IC50 was 10 to 100 nM in assay [1] (setting [6]), over 30000 nM in assay [2] (setting [8]) and 100 to 1000 nM in assay [3].

As to `Cn1cc2c3cc(NS(C)(=O)=O)ccc3n(-c3ccc(C(F)(F)F)cc3)c2n1` [Example C6, N-{2-methyl-8-[4-(trifluoromethyl)phenyl]-2H,8H-pyrazolo[3,4-b]indol-5-yl}methanesulfonamide], the IC50 in assay [1] (setting [6]) is 1 to 10 nM; in assay [2] (setting [8]), over 9500 nM; in assay [3], 1 to 100 nM.

Turning to `O=C(O)c1ccc2c(c1)c1cn(C3CCCCO3)nc1n2-c1ccc(C(F)(F)F)cc1` (stereo not drawn) [Example C10, 2-(oxan-2-yl)-8-[4-(trifluoromethyl)phenyl]-2H,8H-pyrazolo[3,4-b]indole-5-carboxylic acid], the figures for the IC50 in assay [1] (setting [6]), in assay [2] (setting [8]) and in assay [3] were 10 to 100 nM, over 30000 nM and 100 to 1000 nM, respectively.

For `Cn1cnc2c1c1cc(C(=O)N[C@@](C)(CO)c3ccccn3)ccc1n2-c1ccc(C(F)(F)F)cc1` [Example C12, N-[(2R)-1-hydroxy-2-(pyridin-2-yl)propan-2-yl]-1-methyl-4-[4-(trifluoromethyl)phenyl]-1H,4H-imidazo [4,5-b]indole-7-carboxamide], the IC50 in assay [1] (setting [6]) is 1 to 10 nM; in assay [2] (setting [8]), over 3000 nM; in assay [3] it was 1 to 100 nM.

As to `Cc1snc2c1c1cc(C(=O)N=S(C)(=O)CCCO)ccc1n2-c1ccc(C(F)(F)F)cc1` (stereo not drawn) [Example C16, N-[(3-hydroxypropyl)(methyl) οχο-λ6-sulfanylidene]-3-methyl-8-[4-(trifluoromethyl)phenyl]-8H-[1,2]thiazolo[3,4-b]indole-5-carboxamide], the IC50 in assay [1] (setting [6]) was 10 to 100 nM; in assay [2] (setting [8]) it was over 3000 nM; in assay [3], 1 to 100 nM.

For the compound `Cn1cc2c3cc(C4CC(Cl)=NO4)ccc3n(-c3ccc(C(F)(F)F)cc3)c2n1` (stereo not drawn) [Example C17, 3-chloro-5-{2-methyl-8-[4-(trifluoromethyl)phenyl]-2H,8H-pyrazolo[3,4-b]indol-5-yl}-4,5-dihydro-1,2-oxazole], the IC50 is 10 to 100 nM in assay [1] (setting [6]), over 30000 nM in assay [2] (setting [8]) and 1 to 100 nM in assay [3].

Turning to `Cn1nc2c3cc(C4CC(Cl)=NO4)ccc3n(-c3ccc(C(F)(F)F)cc3)c2n1` (stereo not drawn) [Example C18, 3-chloro-5-{2-methyl-4-[4-(trifluoromethyl)phenyl]-2H,4H-[1,2,3]triazolo[4,5-b]indol-7-yl}-4,5-dihydro-1,2-oxazole], the IC50 was 10 to 100 nM in assay [1] (setting [6]), over 30000 nM in assay [2] (setting [8]) and 1 to 100 nM in assay [3].

Turning to `CN(c1ccc2c(c1)c1cn(C)nc1n2-c1ccc(C(F)(F)F)cc1)S(C)(=O)=O` [Example C20, N-methyl-N-{2-methyl-8-[4-(trifluoromethyl)phenyl]-2H,8H-pyrazolo[3,4-b]indol-5-yl}methanesulfonamide], the IC50 is 10 to 100 nM in assay [1] (setting [6]), over 30000 nM in assay [2] (setting [8]) and 1 to 100 nM in assay [3].

In the case of `Cn1cc2c3cc(NC(=O)c4ccncc4)ccc3n(-c3ccc(C(F)(F)F)cc3)c2n1` [Example C21, N-{2-methyl-8-[4-(trifluoromethyl)-phenyl]-2H,8H-pyrazolo[3,4-b]indol-5-yl}pyridine-4-carboxamide], the IC50 in assay [1] (Homo sapiens, SK-HEP1, SK-HEP-1 reporter assay, n.d. = value not detectable below threshold given in parentheses, ND = not determinable within the entire range) is over 1000 nM; in assay [2] (setting [8]), over 3000 nM; in assay [3], 100 to 1000 nM.

The values are drawn from patent US20240270748A1 (Merck Patent GmbH, priority 2021, published 2024).
